Laboratory results taken from patent US20170368082A1, “FORMULATIONS OF BRINCIDOFOVIR” (priority 2016, published 2017).

How the values were obtained:
Assay type in all cases: physicochemical
[1] = Clinical infusion bag compatibility
Experimental: A standard mini-infusion bag (100 mL) was subjected to material compatibility testing with the following formulation:
The developed brincidofovir formulation (15 mg/mL brincidofovir, 200 mM sodium phosphate, pH=8.0) was diluted to c(BCV)=0.1 and c(BCV)=1.0 mg/mL by injection into the infusion bags. The infusion bags were then stored at ambient conditions, and samples were collected from the infusion bags at the time points (t0, t1h, t8h, and t24h) for assessments of appearance, pH, and c(BCV). As a control, the 5% dextrose solution was removed from a separate infusion bag, and external dilutions (standard laboratory glassware) of the testing formulation with the 5% dextrose solution were performed applying identical dilution factors. Samples of the external diluted solution were likewise analyzed.
Solutions of Formulation 3a, in a 5% dextrose injection vehicle, were prepared at two different formulation strengths (1.0 mg/mL and 0.1 mg/mL brincidofovir), and stored in the infusion bag at ambient conditions. Samples form the infusion bags and from an externally diluted standard were evaluated for appearance, pH and brincidofovir recovery (determined via HPLC) at the beginning of the study (t0), after 8 h (t8h), and after 24 h (t24h).

[2] = Clinical infusion system compatibility
Experimental: The testing procedure can be summarized as follows: • 1. […] The tested infusion system was attached to the infusion bag and manually filled with solution from the infusion bag. Approximately 1 mL (triplicates) of the testing solution was collected as an end-of-line sample for analysis (t0, eol). • 4. The testing infusion system was shut off, and stored at ambient conditions until the next time point. […] B Braun, Rate Flow® regulator IV set). […] The infusion systems were then attached to the infusion bag and manually filled with solution from the infusion bag. Aliquots were collected as an end-of-line sample for analysis (t0, eol). The IV lines were closed between time points with the infusate resting within the infusion system and stored at ambient temperature. At testing time points, approximately 17 mL (approx. volume of the IV system) of infusate solution were drained, which led to a replacement of the solution in the IV system from the bag reservoir. Following this replacement, another end-of-line sample was collected for the assessments (t10 min, eol, t3 h, eol, and t6 h, eol). The samples were evaluated for appearance, pH, and brincidofovir recovery.

[3] = Drug product vial and stopper compatibility
Experimental: Formulations of the disclosure were evaluated for […]. The testing formulation (5 mL, 10 mg/mL brincidofovir, 200 mM sodium phosphate, pH=8.0) was dispensed into a set of Afton sterilized, Ready-To-Fill® vials. The vials were stoppered with West NovaPure® stoppers and crimped with Afton Ready-To-Fill® sterilized seals, and stored for 6 hours at ambient conditions in upright and inverted orientations. Samples of the filling solution were collected before filling and after 6 hours of storage under the respective condition. The collected samples were assessed for their appearance, pH, and c(BCV). […] No additional impurity was introduced following contact.
The vials used for testing were clear, 20 mL, Class A borosilicate glass serum vials, and the stoppers were 20 mm Novapure® stoppers, with FluroTec® coating.

[4] = c(BCV) 0.1 mg/mL in infusion bag, t0
[5] = c(BCV) 0.1 mg/mL in infusion bag, t1 h
[6] = c(BCV) 0.1 mg/mL in infusion bag, t8 h
[7] = c(BCV) 0.1 mg/mL in infusion bag, t24 h
[8] = c(BCV) 0.1 mg/mL, external dilution
[9] = c(BCV) 1.0 mg/mL in infusion bag, t0
[10] = c(BCV) 1.0 mg/mL in infusion bag, t1 h
[11] = c(BCV) 1.0 mg/mL in infusion bag, t8 h
[12] = c(BCV) 1.0 mg/mL in infusion bag, t24 h
[13] = c(BCV) 1.0 mg/mL, external dilution
[14] = B. Braun, 0.1 mg/mL, t10 min, eol
[15] = B. Braun, 1.0 mg/mL, t10 min, eol
[16] = Baxter, 0.1 mg/mL, t10 min, eol
[17] = Baxter, 1.0 mg/mL, t10 min, eol

## CCCCCCCCCCCCCCCCOCCCOP(=O)(O)CO[C@H](CO)Cn1ccc(N)nc1=O [Brincidofovir]
[1]; [4]
  Appearance: Clear,
  Measured pH: 7.9
  Observed c(BCV): 0.092 mg/mL
[1]; [5]
  Appearance: Clear,
  Measured pH: 7.9
  Observed c(BCV): 0.093 mg/mL
[1]; [6]
  Appearance: Clear,
  Measured pH: 7.9
  Observed c(BCV): 0.093 mg/mL
[1]; [7]
  Appearance: Clear,
  Measured pH: 7.9
  Observed c(BCV): 0.093 mg/mL
[1]; [8]
  Appearance: Clear,
  Measured pH: 7.9
  Observed c(BCV): 0.098 mg/mL
[1]; [9]
  Appearance: Clear,
  Measured pH: 8.2
  Observed c(BCV): 0.87 mg/mL
[1]; [10]
  Appearance: Clear,
  Measured pH: 8.2
  Observed c(BCV): 0.87 mg/mL
[1]; [11]
  Appearance: Clear,
  Measured pH: 8.2
  Observed c(BCV): 0.87 mg/mL
[1]; [12]
  Appearance: Clear,
  Measured pH: 8.1
  Observed c(BCV): 0.86 mg/mL
[1]; [13]
  Appearance: Clear,
  Measured pH: 8.2
  Observed c(BCV): 0.94 mg/mL
[2]; B. Braun, 0.1 mg/mL, t0, bag
  Appearance: Clear, colorless
  Measured pH: 7.8
  Observed c(BCV): 0.091 mg/mL
[2]; B. Braun, 0.1 mg/mL, t0, eol
  Appearance: Clear, colorless
  Measured pH: 7.7
  Observed c(BCV): 0.086 mg/mL
[2]; [14]
  Appearance: Clear, colorless
  Measured pH: 7.7
  Observed c(BCV): 0.091 mg/mL
[2]; B. Braun, 0.1 mg/mL, t3 h, eol
  Appearance: Clear, colorless
  Measured pH: 7.7
  Observed c(BCV): 0.090 mg/mL
[2]; B. Braun, 0.1 mg/mL, t6 h, eol
  Appearance: Clear, colorless
  Measured pH: 7.7
  Observed c(BCV): 0.091 mg/mL
[2]; B. Braun, 0.1 mg/mL, t−24 h, bag
  Observed c(BCV): 0.090 mg/mL
[2]; B. Braun, 1.0 mg/mL, t0, bag
  Appearance: Clear, colorless
  Measured pH: 8.1
  Observed c(BCV): 0.86 mg/mL
[2]; B. Braun, 1.0 mg/mL, t0, eol
  Appearance: Clear, colorless
  Measured pH: 8.1
  Observed c(BCV): 0.86 mg/mL
[2]; [15]
  Appearance: Clear, colorless
  Measured pH: 8.1
  Observed c(BCV): 0.86 mg/mL
[2]; B. Braun, 1.0 mg/mL, t3 h, eol
  Appearance: Clear, colorless
  Measured pH: 8.1
  Observed c(BCV): 0.86 mg/mL
[2]; B. Braun, 1.0 mg/mL, t6 h, eol
  Appearance: Clear, colorless
  Measured pH: 8.1
  Observed c(BCV): 0.86 mg/mL
[2]; B. Braun, 1.0 mg/mL, t−24 h, bag
  Observed c(BCV): 0.86 mg/mL
[2]; Baxter, 0.1 mg/mL, t0, bag
  Appearance: Clear, colorless
  Measured pH: 7.7
  Observed c(BCV): 0.091 mg/mL
[2]; Baxter, 0.1 mg/mL, t0, eol
  Appearance: Clear, colorless
  Measured pH: 7.7
  Observed c(BCV): 0.088 mg/mL
[2]; [16]
  Appearance: Clear, colorless
  Measured pH: 7.7
  Observed c(BCV): 0.092 mg/mL
[2]; Baxter, 0.1 mg/mL, t3 h, eol
  Appearance: Clear, colorless
  Measured pH: 7.7
  Observed c(BCV): 0.091 mg/mL
[2]; Baxter, 0.1 mg/mL, t6 h, eol
  Appearance: Clear, colorless
  Measured pH: 7.7
  Observed c(BCV): 0.092 mg/mL
[2]; Baxter, 0.1 mg/mL, t−24 h, bag
  Observed c(BCV): 0.090 mg/mL
[2]; Baxter, 1.0 mg/mL, t0, bag
  Appearance: Clear, colorless
  Measured pH: 8.1
  Observed c(BCV): 0.86 mg/mL
[2]; Baxter, 1.0 mg/mL, t0, eol
  Appearance: Clear, colorless
  Measured pH: 8.1
  Observed c(BCV): 0.85 mg/mL
[2]; [17]
  Appearance: Clear, colorless
  Measured pH: 8.1
  Observed c(BCV): 0.86 mg/mL
[2]; Baxter, 1.0 mg/mL, t3 h, eol
  Appearance: Clear, colorless
  Measured pH: 8.1
  Observed c(BCV): 0.86 mg/mL
[2]; Baxter, 1.0 mg/mL, t6 h, eol
  Appearance: Clear, colorless
  Measured pH: 8.1
  Observed c(BCV): 0.86 mg/mL
[2]; Baxter, 1.0 mg/mL, t−24 h, bag
  Observed c(BCV): 0.85 mg/mL
[3]; Inverted, 6 h
  Appearance: Clear, colorless
  Measured pH: 8.0
  Observed c(BCV): 9.4 mg/mL
[3]; Pre filling
  Appearance: Clear, colorless
  Measured pH: 8.0
  Observed c(BCV): 9.5 mg/mL
[3]; Upright, 6 h
  Appearance: Clear, colorless
  Measured pH: 8.0
  Observed c(BCV): 9.5 mg/mL
